Key:
Aurora B = Aurora B (Homo sapiens, UniProt Q96GD4); format: biochemical; conditions: for Ki: calculated from mean IC50 using the Cheng-Prusoff equation, read-out: AurB Ki; for AurB ligand efficiency (LE): from Ki;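 as to all read-outs here: aurora B inhibition measured in a mobility shift assay, underlying mean IC50 taken from two independent duplicate runs at 8 compound concentrations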
Procedure: IC50 values were obtained for an expanded version of the fragment library using the previously described mobility shift assay.[44] Subsequently, Ki values were estimated from IC50 values to allow better comparison of the activity against targets which were measured at different substrate concentrations (Supplementary data Table 1).
IC50 values for MPS1, Aurora A and Aurora B inhibition were determined as previously described,[44] and Ki values were estimated from the mean IC50 values using the Cheng-Prusoff equation.[48]
Kinase [ATP] (M) [Enzyme] (nM) [Peptide Substrate] (M) MgCl2 (mM)
For all compounds, IC50 values for MPS1, Aurora A, and Aurora B were determined
using MPS1 and Aurora A/B mobility shift assays as described previously.1 IC50
values were calculated from a four-parameter logistic fit of percentage inhibition
versus concentration (at 8 compound concentrations) using GraphPad Prism 5
(GraphPad Software, Inc., CA, USA). Mean IC50 values were determined from two
independent measurements each carried out in duplicate. Ki values were estimated
from the mean IC50 values using the Cheng-Prusoff equation.

PKD2 = target: T1, PKD2 (Homo sapiens, UniProt Q9BZL6); experiment: 26-kinase panel mobility shift assay, single concentration; format: biochemical; conditions: read-out: % Inhibition PKD2
T1 construct: purchased Perkin Elmer (ProfilerPro assay kit 1)
T1 sequence (Q9BZL6 1-878): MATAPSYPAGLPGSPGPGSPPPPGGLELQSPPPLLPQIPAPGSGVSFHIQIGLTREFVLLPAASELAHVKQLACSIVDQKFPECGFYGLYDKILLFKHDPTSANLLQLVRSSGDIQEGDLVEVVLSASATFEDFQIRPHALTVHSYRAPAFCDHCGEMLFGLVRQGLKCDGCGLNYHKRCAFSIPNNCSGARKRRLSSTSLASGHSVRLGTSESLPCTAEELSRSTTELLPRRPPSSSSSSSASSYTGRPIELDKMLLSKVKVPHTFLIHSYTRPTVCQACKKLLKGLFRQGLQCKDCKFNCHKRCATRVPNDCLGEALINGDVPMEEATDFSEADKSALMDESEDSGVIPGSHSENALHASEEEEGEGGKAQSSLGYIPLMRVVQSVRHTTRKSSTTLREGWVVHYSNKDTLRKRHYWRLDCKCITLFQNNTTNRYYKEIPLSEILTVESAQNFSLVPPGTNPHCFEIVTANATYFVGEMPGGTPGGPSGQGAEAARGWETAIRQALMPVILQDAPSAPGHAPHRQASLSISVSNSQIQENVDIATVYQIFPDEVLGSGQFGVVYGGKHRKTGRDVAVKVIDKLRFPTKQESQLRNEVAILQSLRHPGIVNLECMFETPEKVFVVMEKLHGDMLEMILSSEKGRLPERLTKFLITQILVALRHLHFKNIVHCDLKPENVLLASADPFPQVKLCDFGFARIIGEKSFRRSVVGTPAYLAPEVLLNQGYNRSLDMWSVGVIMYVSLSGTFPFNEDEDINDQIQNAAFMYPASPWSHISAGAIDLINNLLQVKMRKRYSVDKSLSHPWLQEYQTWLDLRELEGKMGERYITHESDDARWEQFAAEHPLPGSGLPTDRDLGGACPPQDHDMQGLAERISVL
Procedure: (§1) In order to test the biochemical activity of our fragment library, a panel of 26 structurally diverse protein kinases was used.
(§2) Screening of 26 kinases using a mobility shift assay
(§3) A mobility shift assay to determine kinase inhibition was carried out using a
(§4) modified version of the ProfilerPro assay kit 1 (Perkin Elmer, Coventry, UK)
(§5) including MPS1 and Aurora B. Each kit contained an enzyme plate, a substrate
(§6) plate, reconstitution buffer, 1 M DTT, protease inhibitor cocktail and termination
(§7) buffer. Test compounds were added as a solution in DMSO.
(§8) peptide phosphorylation assay was carried out as per the manufacturer’s
(§9) instructions. The electrophoretic separation and analysis of the phosphorylated
(§10) and non-phosphorylated peptides was carried out on a 4-sipper chip using a
(§11) LabChip EZReader II (Perkin Elmer). Results were expressed as % inhibition of
(§12) peptide phosphorylation relative to control wells for 0 % (no test compound) and
(§13) 100 % (no ATP) inhibition. The percentage inhibition was calculated using the
(§14) % Inhibition = [1 - (% Conversion Sample / % Conversion 0% Inhibition Control)] x 100

PKCζ = target: T2, PKCζ (Homo sapiens, UniProt Q05513); experiment: as above; format: biochemical; conditions: read-out: % Inhibition PKC
T2 construct: purchased Perkin Elmer (ProfilerPro assay kit 1)
T2 sequence (Q05513 1-592): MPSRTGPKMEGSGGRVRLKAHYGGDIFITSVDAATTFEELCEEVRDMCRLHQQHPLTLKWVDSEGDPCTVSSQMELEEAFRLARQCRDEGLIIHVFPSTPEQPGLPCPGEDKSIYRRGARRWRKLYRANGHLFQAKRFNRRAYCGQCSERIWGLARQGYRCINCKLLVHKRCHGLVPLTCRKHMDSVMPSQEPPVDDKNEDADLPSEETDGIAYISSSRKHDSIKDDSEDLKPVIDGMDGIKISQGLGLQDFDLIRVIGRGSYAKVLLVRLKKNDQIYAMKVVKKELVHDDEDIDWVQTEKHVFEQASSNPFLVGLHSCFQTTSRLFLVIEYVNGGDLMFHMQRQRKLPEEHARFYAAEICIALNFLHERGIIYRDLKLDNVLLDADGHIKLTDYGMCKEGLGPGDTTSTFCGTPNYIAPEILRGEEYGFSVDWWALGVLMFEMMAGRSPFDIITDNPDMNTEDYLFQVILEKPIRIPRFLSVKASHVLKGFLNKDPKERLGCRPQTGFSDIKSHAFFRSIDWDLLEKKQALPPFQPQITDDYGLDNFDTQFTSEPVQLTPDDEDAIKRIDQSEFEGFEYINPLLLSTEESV
Procedure: as §1
Mobility Shift Assay Protocol
as §2, §3, §4, §5, §6, §7
final concentration. […] The
as §8, §9, §10, §11, §12, §13, §14

PKA = target: T3, PKA (Homo sapiens, UniProt P17612); experiment: as above; format: biochemical; conditions: read-out: % Inhibition PKA
T3 construct: purchased Perkin Elmer (ProfilerPro assay kit 1)
Procedure: as §1
Mobility Shift Assay Protocol
as §2, §3, §4, §5, §6, §7
final concentration. […] The
as §8, §9, §10, §11, §12, §13, §14

p38 = target: T4, p38 (Homo sapiens, UniProt Q16539); experiment: as above; format: biochemical; conditions: read-out: % Inhibition p38
T4 construct: purchased Perkin Elmer (ProfilerPro assay kit 1)
Procedure: as §1
Mobility Shift Assay Protocol
as §2, §3, §4, §5, §6, §7
final concentration. […] The
as §8, §9, §10, §11, §12, §13, §14

LCK = target: T5, LCK (Homo sapiens, UniProt P06239); experiment: as above; format: biochemical; conditions: read-out: % Inhibition LCK
T5 construct: purchased Perkin Elmer (ProfilerPro assay kit 1)
Procedure: as §3, §4, §5, §6, §7, §8, §9, §10, §11, §12, §13, §14

INSR = target: T6, INSR (Homo sapiens, UniProt P06213); experiment: as above; format: biochemical; conditions: read-out: % Inhibition INSR
T6 construct: purchased Perkin Elmer (ProfilerPro assay kit 1)
Procedure: as §1, §2, §3, §4, §5, §6, §7, §8, §9, §10, §11, §12, §13, §14

GSK3b = target: T7, GSK3b (Homo sapiens, UniProt P49841); experiment: as above; format: biochemical; conditions: read-out: % Inhibition GSK3
T7 construct: purchased Perkin Elmer (ProfilerPro assay kit 1)
Procedure: as §3, §4, §5, §6, §7, §8, §9, §10, §11, §12, §13, §14

FYN = target: T8, FYN (Homo sapiens, UniProt P06241); experiment: as above; format: biochemical; conditions: read-out: % Inhibition FYN
T8 construct: purchased Perkin Elmer (ProfilerPro assay kit 1)
Procedure: as §3, §4, §5, §6, §7, §8, §9, §10, §11, §12, §13, §14

CK1d = target: T9, CK1d (Homo sapiens, UniProt P48730); experiment: as above; format: biochemical; conditions: read-out: % Inhibition CK1d
T9 construct: purchased Perkin Elmer (ProfilerPro assay kit 1)
Procedure: as §3, §4, §5, §6, §7, §8, §9, §10, §11, §12, §13, §14

CHK1 = target: T10, CHK1 (Homo sapiens, UniProt O14757); experiment: as above; format: biochemical; conditions: read-out: % Inhibition CHK1
T10 construct: purchased Perkin Elmer ProfilerPro assay kit 1
T10 sequence (O14757 1-476): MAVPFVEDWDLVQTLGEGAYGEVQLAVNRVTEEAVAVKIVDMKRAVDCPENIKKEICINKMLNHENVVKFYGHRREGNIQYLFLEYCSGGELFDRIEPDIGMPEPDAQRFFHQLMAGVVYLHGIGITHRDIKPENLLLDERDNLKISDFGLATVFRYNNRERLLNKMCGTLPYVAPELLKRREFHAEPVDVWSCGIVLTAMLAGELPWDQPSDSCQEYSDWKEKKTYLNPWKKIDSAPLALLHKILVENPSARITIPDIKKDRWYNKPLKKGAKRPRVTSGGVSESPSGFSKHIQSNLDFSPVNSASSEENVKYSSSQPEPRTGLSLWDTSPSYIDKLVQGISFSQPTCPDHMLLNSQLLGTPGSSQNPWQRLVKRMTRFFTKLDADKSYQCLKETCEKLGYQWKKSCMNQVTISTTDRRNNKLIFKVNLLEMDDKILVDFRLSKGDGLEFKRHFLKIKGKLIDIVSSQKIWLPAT
Procedure: as §3, §4, §5, §6, §7, §8, §9, §10, §11, §12, §13, §14

AKT2 = target: T11, AKT2 (Homo sapiens, UniProt P31751); experiment: as above; format: biochemical; conditions: read-out: % Inhibition AKT2
T11 construct: purchased Perkin Elmer ProfilerPro assay kit 1
Procedure: as §1, §2, §3, §4, §5, §6, §7, §8, §9, §10, §11, §12, §13, §14

ABL = target: T12, ABL (Homo sapiens, UniProt P00519); experiment: as above; format: biochemical; conditions: read-out: % Inhibition ABL
T12 construct: purchased Perkin Elmer ProfilerPro assay kit 1
Procedure: Mobility Shift Assay Protocol
as §2, §3, §4, §5, §6, §7, §8, §9, §10, §11, §12, §13, §14

[1] = Solubility as noted for the kinase panel screen; format: physicochemical; conditions: reason for screening at 30 µM instead of 100 µM

T12 sequence (P00519 whole entry): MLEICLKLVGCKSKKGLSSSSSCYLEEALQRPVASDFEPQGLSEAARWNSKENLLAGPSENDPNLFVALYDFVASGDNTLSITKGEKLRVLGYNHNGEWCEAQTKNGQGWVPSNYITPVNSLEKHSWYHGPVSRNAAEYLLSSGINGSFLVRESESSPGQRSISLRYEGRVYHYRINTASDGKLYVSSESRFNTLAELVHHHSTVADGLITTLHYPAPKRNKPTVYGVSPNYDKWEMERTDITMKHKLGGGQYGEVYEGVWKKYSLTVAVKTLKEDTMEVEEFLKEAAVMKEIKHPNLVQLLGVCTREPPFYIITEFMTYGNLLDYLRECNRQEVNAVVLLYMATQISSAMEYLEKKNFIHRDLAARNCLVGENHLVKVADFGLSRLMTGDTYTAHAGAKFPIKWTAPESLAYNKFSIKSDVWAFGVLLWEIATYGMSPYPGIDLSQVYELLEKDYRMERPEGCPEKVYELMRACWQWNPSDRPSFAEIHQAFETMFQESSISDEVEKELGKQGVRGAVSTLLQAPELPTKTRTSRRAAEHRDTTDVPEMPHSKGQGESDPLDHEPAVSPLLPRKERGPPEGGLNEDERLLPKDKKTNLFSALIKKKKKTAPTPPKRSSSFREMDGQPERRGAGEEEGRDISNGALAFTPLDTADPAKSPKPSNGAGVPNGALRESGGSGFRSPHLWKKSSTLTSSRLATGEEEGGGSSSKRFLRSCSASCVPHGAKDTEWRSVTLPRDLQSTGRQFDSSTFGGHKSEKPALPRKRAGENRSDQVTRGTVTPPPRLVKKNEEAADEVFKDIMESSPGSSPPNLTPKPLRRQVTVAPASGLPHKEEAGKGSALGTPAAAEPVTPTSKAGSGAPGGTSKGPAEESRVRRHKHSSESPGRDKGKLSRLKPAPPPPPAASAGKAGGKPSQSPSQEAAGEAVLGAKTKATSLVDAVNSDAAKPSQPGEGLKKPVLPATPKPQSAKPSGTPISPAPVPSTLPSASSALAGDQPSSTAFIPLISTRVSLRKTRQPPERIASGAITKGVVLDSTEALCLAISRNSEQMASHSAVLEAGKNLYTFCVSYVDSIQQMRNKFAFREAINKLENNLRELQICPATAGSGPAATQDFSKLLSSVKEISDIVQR
T11 sequence (P31751 whole entry): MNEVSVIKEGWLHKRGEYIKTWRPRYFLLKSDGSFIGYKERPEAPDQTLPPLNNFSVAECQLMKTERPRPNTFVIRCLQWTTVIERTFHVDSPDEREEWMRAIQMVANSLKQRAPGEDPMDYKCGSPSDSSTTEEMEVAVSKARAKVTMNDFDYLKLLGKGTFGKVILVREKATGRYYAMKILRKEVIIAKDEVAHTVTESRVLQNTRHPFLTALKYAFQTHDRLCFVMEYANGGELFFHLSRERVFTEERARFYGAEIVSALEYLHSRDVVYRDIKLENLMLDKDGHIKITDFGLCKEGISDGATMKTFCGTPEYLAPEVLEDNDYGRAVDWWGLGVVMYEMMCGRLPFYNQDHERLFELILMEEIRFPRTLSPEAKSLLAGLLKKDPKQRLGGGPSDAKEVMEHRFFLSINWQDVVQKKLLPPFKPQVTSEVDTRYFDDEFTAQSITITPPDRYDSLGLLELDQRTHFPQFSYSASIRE
T4 sequence (Q16539 whole entry): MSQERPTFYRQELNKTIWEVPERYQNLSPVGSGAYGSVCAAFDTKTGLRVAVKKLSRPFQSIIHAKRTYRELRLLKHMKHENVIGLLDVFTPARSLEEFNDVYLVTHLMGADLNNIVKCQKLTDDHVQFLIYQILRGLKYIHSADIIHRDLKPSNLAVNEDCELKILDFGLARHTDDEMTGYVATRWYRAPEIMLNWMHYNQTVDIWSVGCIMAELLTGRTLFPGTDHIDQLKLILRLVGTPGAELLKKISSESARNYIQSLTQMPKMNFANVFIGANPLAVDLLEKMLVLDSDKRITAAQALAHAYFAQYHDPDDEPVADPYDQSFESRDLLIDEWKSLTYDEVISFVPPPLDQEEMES
T9 sequence (P48730 whole entry): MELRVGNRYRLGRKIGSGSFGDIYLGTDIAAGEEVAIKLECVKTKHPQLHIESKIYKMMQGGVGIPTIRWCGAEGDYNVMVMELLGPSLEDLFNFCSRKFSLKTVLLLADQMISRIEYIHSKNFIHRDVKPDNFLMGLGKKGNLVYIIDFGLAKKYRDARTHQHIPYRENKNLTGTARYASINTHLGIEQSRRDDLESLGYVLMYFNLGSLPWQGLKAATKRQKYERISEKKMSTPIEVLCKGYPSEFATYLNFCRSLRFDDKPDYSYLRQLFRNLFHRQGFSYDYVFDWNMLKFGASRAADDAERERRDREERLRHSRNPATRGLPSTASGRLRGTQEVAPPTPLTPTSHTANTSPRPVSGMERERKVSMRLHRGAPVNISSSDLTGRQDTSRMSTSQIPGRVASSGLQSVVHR
T7 sequence (P49841 whole entry): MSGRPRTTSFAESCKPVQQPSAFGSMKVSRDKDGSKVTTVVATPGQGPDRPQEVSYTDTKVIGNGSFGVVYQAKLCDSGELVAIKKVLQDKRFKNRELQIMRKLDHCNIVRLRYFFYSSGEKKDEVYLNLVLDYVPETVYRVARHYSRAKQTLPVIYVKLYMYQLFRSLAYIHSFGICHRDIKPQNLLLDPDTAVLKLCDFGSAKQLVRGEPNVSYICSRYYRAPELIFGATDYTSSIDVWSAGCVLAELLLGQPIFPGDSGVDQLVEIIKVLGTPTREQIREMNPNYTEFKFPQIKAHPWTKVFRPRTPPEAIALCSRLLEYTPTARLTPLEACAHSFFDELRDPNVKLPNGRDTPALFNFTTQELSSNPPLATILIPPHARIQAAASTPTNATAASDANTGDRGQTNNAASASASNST
T8 sequence (P06241 whole entry): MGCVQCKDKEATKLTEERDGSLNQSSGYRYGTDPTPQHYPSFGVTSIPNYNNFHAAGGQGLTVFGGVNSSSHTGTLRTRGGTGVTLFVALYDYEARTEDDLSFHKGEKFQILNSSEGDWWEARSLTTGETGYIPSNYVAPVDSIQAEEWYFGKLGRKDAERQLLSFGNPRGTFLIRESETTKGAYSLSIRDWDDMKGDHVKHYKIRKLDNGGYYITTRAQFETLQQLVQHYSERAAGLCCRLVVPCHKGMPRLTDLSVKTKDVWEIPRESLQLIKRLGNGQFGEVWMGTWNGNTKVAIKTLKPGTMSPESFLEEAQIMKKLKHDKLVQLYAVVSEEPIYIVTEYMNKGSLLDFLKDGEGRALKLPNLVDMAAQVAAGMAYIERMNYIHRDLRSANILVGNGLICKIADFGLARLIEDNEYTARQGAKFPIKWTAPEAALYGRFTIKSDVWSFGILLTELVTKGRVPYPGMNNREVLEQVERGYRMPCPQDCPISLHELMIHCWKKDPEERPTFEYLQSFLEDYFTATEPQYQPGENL
T6 sequence (P06213 28-1382): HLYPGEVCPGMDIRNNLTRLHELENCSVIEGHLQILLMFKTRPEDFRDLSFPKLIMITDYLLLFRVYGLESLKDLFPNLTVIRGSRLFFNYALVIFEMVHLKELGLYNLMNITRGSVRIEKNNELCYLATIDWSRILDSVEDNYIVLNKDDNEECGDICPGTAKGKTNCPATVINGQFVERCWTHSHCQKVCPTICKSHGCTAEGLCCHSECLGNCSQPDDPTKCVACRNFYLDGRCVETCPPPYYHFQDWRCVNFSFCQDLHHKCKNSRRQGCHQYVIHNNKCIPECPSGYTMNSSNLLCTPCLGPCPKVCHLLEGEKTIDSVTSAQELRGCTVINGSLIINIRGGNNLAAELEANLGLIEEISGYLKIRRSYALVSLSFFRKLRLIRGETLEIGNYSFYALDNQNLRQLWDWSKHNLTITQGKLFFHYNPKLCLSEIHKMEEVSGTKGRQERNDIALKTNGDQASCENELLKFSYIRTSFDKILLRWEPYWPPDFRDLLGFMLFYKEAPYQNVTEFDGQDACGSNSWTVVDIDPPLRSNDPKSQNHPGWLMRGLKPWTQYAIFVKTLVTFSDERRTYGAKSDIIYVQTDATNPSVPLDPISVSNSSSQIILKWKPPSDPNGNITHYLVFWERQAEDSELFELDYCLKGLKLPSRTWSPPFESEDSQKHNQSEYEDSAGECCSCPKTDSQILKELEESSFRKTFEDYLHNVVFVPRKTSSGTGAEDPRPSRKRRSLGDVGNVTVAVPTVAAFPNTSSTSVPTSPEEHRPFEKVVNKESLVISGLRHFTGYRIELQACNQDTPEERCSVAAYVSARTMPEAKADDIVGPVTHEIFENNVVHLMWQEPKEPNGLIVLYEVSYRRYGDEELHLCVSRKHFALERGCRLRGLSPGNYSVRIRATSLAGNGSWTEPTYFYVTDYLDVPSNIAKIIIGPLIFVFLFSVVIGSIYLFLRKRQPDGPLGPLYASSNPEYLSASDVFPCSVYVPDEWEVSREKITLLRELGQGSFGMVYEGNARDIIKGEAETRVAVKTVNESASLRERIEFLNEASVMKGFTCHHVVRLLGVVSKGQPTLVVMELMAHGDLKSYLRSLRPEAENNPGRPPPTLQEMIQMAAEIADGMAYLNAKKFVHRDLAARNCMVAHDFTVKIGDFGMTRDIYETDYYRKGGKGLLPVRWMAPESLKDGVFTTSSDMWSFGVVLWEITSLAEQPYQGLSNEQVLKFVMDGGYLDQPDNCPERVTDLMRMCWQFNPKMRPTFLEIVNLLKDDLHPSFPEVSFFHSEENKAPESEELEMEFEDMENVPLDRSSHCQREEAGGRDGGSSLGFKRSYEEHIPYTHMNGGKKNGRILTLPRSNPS
Aurora B, sequence (Q96GD4 whole entry): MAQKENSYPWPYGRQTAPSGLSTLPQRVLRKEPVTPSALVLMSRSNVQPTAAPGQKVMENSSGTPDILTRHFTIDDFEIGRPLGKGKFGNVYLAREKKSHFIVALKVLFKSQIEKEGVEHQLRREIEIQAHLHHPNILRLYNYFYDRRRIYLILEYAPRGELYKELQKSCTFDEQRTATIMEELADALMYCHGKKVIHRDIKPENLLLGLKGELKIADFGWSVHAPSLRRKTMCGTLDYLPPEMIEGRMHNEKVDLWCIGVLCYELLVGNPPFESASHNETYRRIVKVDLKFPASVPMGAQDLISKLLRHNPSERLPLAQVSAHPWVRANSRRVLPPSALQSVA

Row | SMILES | Ki (Aurora B) | AurB ligand efficiency (LE) (Aurora B) | inhibition at 100 µM (PKD2) | inhibition at 100 µM (PKCζ) | inhibition at 100 µM (PKA) | inhibition at 100 µM (p38) | inhibition at 100 µM (LCK) | inhibition at 100 µM (INSR) | inhibition at 100 µM (GSK3b) | inhibition at 100 µM (FYN) | inhibition at 100 µM (CK1d) | inhibition at 100 µM (CHK1) | inhibition at 100 µM (AKT2) | inhibition at 100 µM (ABL) | inhibition at 30 µM (PKD2) | inhibition at 30 µM (PKCζ) | inhibition at 30 µM (PKA) | inhibition at 30 µM (p38) | inhibition at 30 µM (LCK) | inhibition at 30 µM (INSR) | other results
1 | Nc1ccc[nH]c1=O [Compound 1, 3-aminopyridin-2-one] | 160 µM | 0.64 | 10% | 27% | 0% | 9% | 4% | 2% | 17% | 11% | 45% | 37% | 77% | 5% |  |  |  |  |  |  | 
2 | Cn1cc(-c2c[nH]c(=O)c(N)c2)cn1 [Compound 2, 3-Amino-5-(1-methyl-1H-pyrazol-4-yl)pyridin-2(1H)-one] | 3.2 µM | 0.53 | 67% | 83% | 66% | 39% | 11% | 25% | 68% | 34% | 72% | 77% | 97% | 58% |  |  |  |  |  |  | melting point: 264 °C
3 | COc1ncc(-c2ccncc2)cc1N [Compound 5, 6-Methoxy-3,4′-bipyridin-5-amine] | 63.9 µM | 0.38 | 26% | 5% | 52% | 0% | 7% | 6% | 26% | 9% | 38% | 1% | 4% | 26% |  |  |  |  |  |  | 
4 | Nc1cc(-c2ccnc3ccccc23)c[nH]c1=O [Compound 6] | 41.7 µM | 0.33 | 36% | 17% | 48% | 0% | 40% | 13% | 20% | 40% | 37% | 26% | 9% | 66% |  |  |  |  |  |  | 
5 | CNc1nccc(-c2c[nH]c(=O)c(N)c2)n1 [Compound 7] | 15.1 µM | 0.41 | 70% | 37% | 81% | 25% | 55% | 80% | 89% | 66% | 79% | 79% | 93% | 67% |  |  |  |  |  |  | 
6 | Nc1cc(-c2ccnc(NC3CC3)n2)c[nH]c1=O [Compound 8] | 12 µM | 0.37 | 81% | 0% | 8% | 12% | 38% | 27% | 87% | 51% | 63% | 26% | 18% | 43% |  |  |  |  |  |  | 
7 | Cc1nc(O)c(N)cc1-c1ccncc1 [Compound 15, 3-Amino-6-methyl-5-(pyridin-4-yl)pyridin-2-one] | 25.7 µM | 0.42 | 8% | 13% | 0% | 8% | 4% | 23% | 39% | 6% | 33% | 4% | 17% | 5% |  |  |  |  |  |  | 
8 | O=C(Nc1cc(-c2ccncc2)c[nH]c1=O)c1ccccc1 [Compound 16, N-(2-Oxo-5-(pyridin-4-yl)-1,2-dihydropyridin-3-yl)benzamide] | 41 µM | 0.27 |  |  |  |  |  |  |  |  |  |  |  |  | 30% | 0% | 0% | 4% | 45% | 13% | inhibition at 30 µM (GSK3b): 92%; inhibition at 30 µM (FYN): 59%; inhibition at 30 µM (CK1d): 79%; inhibition at 30 µM (CHK1): 24%; inhibition at 30 µM (AKT2): 4%; inhibition at 30 µM (ABL): 55%; solubility (in words) [1]: poor solubility
9 | CN1CCN(c2ccc(C(=O)Nc3cc(-c4ccncc4)c[nH]c3=O)cc2)CC1 [Compound 22] | 5.5 µM | 0.25 |  |  |  |  |  |  |  |  |  |  |  |  | 46% | 24% | 0% | 6% | 97% | 30% | inhibition at 30 µM (GSK3b): 94%; inhibition at 30 µM (FYN): 95%; inhibition at 30 µM (CK1d): 31%; inhibition at 30 µM (CHK1): 84%; inhibition at 30 µM (AKT2): 13%; inhibition at 30 µM (ABL): 96%; solubility (in words) [1]: poor solubility
10 | O=C(Nc1cc(-c2ccnc(NC3CC3)n2)c[nH]c1=O)c1ccccc1 [Compound 24] | 3.6 µM | 0.28 |  |  |  |  |  |  |  |  |  |  |  |  | 69% | 0% | 75% | 36% | 75% | 27% | inhibition at 30 µM (GSK3b): 99%; inhibition at 30 µM (FYN): 93%; inhibition at 30 µM (CK1d): 78%; inhibition at 30 µM (CHK1): 0%; inhibition at 30 µM (AKT2): 91%; inhibition at 30 µM (ABL): 88%; solubility (in words) [1]: poor solubility

Source: PMC6008489 (Bioorganic & Medicinal Chemistry, 2018)
